Measurements as given in patent US10357036B2, “Compounds for controlling arthropods” (priority 2015, dated 2019).
Where two headings read alike, the source gives them in different places.

Experiments:
Spodoptera frugiperda = Spodoptera frugiperda spray test; format: in vivo; conditions: 100 g/ha, after 7 days; for pest or weed control at 100 g/ha: Spodoptera frugiperda, 168 h, read-out: efficacy
Ctenocephalides felis [1] = experiment: Ctenocephalides felis oral test; format: in vivo; conditions: 100 ppm in citrated cattle blood; after 2 days
Viola tricolor (VIOTR) = experiment: Herbicidal activity, pre-emergence; format: in vivo; conditions: 1280 g/ha, 3 weeks
Source text: (§1) Seeds of monocotyledonous and dicotyledonous weed plants and crop plants were placed in wood-fibre pots in sandy loam and covered with soil. The compounds according to the invention, formulated as emulsion concentrates (EC), were then applied to the surface of the covering soil as an emulsion at a water application rate equating to 600 to 800 Uha with addition of 0.2% wetting agent.
(§2) After the treatment, the pots were placed in a greenhouse and kept under good growth conditions for the test plants. The damage to the test plants was scored visually after a test period of 3 weeks by comparison with untreated controls (herbicidal activity in percent (%): 100% activity=the plants have died, 0% activity=like control plants). Here, for example, compounds No. Ia-17, Ia-37, Ia-28 and Ia-56 at an application rate of 1280 g/ha each show 100% efficacy against Amaranthus retroflexus (AMARE) and with the exception of Ia-56, even against Viola tricolor (VIOTR). Furthermore, compounds no. Ia-17, Ia-37 and Ia-28 at the same application rate show an 80% or better efficacy against Matricaria inodorae (MATIN) and Ia-17 and Ia-37 even against Stellaria media (STEME).

[2] = tested on: Amaranthus retroflexus (AMARE); experiment: Herbicidal activity, pre-emergence; format: in vivo; conditions: 1280 g/ha, 3 weeks
Source text: as §1, §2

Rhipicephalus sanguineus = Rhipicephalus sanguineus in vitro contact test with adult brown dog ticks; format: in vivo; conditions: after 48 h
Summary of the method: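 Adult Rhipicephalus sanguineus (5-10 per tube) held in glass tubes coated with compound from acetone solution, 900 ppm giving 5 μg/cm^2, in the dark at room temperature. After 48 h ticks put on a 45-50° C hotplate up to 5 min; motionless or uncoordinated ticks scored dead/moribund as % efficacy.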

Boophilus microplus = Boophilus microplus injection test; format: in vivo; conditions: 20 μg/animal; assessed after 7 days
Protocol: (§3) • Solvent: dimethyl sulfoxide
1 μl of the active ingredient solution is injected into the abdomen of 5 engorged adult female cattle ticks (Boophilus microplus). The animals are transferred into dishes and kept in a climate-controlled room.

Musca domestica = Musca domestica test; format: in vivo; conditions: 100 ppm; adult houseflies; after 2 days
Protocol: as §3
(§4) To produce a suitable active ingredient formulation, 10 mg of active ingredient are mixed with 0.5 ml of dimethyl sulfoxide, and the concentrate is diluted with water to the desired concentration.
Vessels containing a sponge treated with sugar solution and the active ingredient formulation of the desired concentration are populated with 10 adult houseflies (Musca domestica).

Tetranychus urticae = Tetranychus urticae spray test, OP-resistant (bean leaf discs); format: in vivo; conditions: 100 g/ha; after 6 days
Protocol: (§5) After 6 days, the efficacy in % is determined.

Phaedon cochleariae = Phaedon cochleariae spray test; conditions: for efficacy: 100 g/ha, after 7 days; for pest or weed control at 100 g/ha: Phaedon cochleariae, 168 h, read-out: efficacy
[3] = tested on: cattle ticks (Boophilus microplus) Parkhurst strain, SP-resistant; experiment: Boophilus microplus dip test; format: in vivo; conditions: 100 ppm; assessed after 7 days
Summary of the method: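 Engorged adult female ticks (8-10 per tube) fully immersed in compound from DMSO stock diluted with water to test concentration, then held in a climate-controlled room. Efficacy scored after 7 days from fertile egg laying, with eggs kept until hatching at about 42 days. 100% means no fertile eggs laid.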

Ctenocephalides felis [4] = experiment: Ctenocephalides felis in vitro contact test with adult cat fleas; format: in vivo; conditions: application rate 5 μg/cm^2 (=500 g/ha); after 48 h; dead or moribund fleas
Summary of the method: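 Glass tubes were coated with compound in acetone (900 ppm solution gives 5 μg/cm²), dried, then loaded with 5–10 adult cat fleas. Held horizontal at room temperature and ambient humidity for 48 h. Efficacy is the % of fleas dead or moribund (motionless or uncoordinated after knock-down).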

[5] = tested on: Anopheles gambiae strain RSPH (homozygot kdr); experiment: whole plant or invertebrate; format: in vivo; conditions: read-out: efficacy (mortality)
Protocol: (§6) • Solvent: acetone+2000 ppm rapeseed oil methyl ester (RME)
(§7) To produce a suitable active compound formulation, the active compound is dissolved in the solvent (2 mg/ml). The active compound formulation is pipetted onto a glazed tile and, after it has dried off, adult mosquitoes of the species Anopheles gambiae strain RSPH (homozygot kdr) are placed onto the treated tile. The exposure time is 30 minutes.

[6] = tested on: Anopheles funestus strain FUMOZ-R; experiment: whole plant or invertebrate; format: in vivo; conditions: read-out: efficacy (mortality)
Protocol: as §6
as §7, with “funestus” for “gambiae”, “FUMOZ-R (Hunt et al., Med Vet Entomol. 2005 September; 19 (3):271-5)” for “RSPH (homozygot kdr)”

[7] = tested on: Aedes aegypti strain MONHEIM; experiment: whole plant or invertebrate; format: in vivo; conditions: read-out: efficacy (mortality)
Protocol: as §6
as §7, with “Aedes aegypti” for “Anopheles gambiae”, “MONHEIM” for “RSPH (homozygot kdr)”

Myzus persicae [8] = experiment: Myzus persicae spray test (bell pepper plants); format: in vivo; conditions: 4 ppm; after 6 days
Protocol: To produce further test concentrations, the latter is diluted with emulsifier-containing water. When addition of ammonium salts and/or penetrants is required, these are each added at a concentration of 1000 ppm to the preparation solution.
Bell pepper plants (Capsicum annuum), which are heavily infested by the green peach aphid (Myzus persicae), are treated by being sprayed with the active compound preparation at the desired concentration.
After 6 days, the kill in % is determined.

Amblyomma hebraeum = Amblyomma hebraeum test (tick nymphs, immersion); format: in vivo; conditions: 100 ppm; after 42 days
Protocol: as §3, §4
Tick nymphs (Amblyomma hebraeum) are placed into perforated plastic beakers and immersed in the desired concentration for one minute. The ticks are transferred on filter paper into a Petri dish and stored in a climate-controlled cabinet.

Myzus persicae [9] = experiment: Myzus persicae spray test (Chinese cabbage leaf discs); format: in vivo; conditions: 100 g/ha; after 6 days
Protocol: as §5

[10] = application rate 5 μg/cm^2 (=500 g/ha), dead or moribund ticks
[11] = reversed-phase C18 HPLC column, logP, HPLC, C18, acetonitrile/water with formic acid (note a)
[12] = reversed-phase C18 HPLC column, logP^a, HPLC-MS method a)

| SMILES | efficacy (Spodoptera frugiperda) [%] | efficacy (rate of extermination) (Ctenocephalides felis [1]) [%] | herbicidal efficacy [2] [%] | efficacy (Rhipicephalus sanguineus; [10]) [%] | efficacy (laying of fertile eggs) (Boophilus microplus) [%] | efficacy (rate of extermination) (Musca domestica) [%] | efficacy (Tetranychus urticae) [%] | efficacy (Phaedon cochleariae) [%] | pest or weed control at 100 g/ha (Spodoptera frugiperda) [%] | efficacy (laying of fertile eggs) [3] [%] | chromatographic logP [11] | efficacy (Ctenocephalides felis [4]) [%] | pest or weed control at 100 g/ha (Phaedon cochleariae) [%] | mortality at 20 mg/m2 [7] [%] | other results |
| --- | --- | --- | --- | --- | --- | --- | --- | --- | --- | --- | --- | --- | --- | --- | --- |
| CC(=O)NCc1cccc(-c2cnn(-c3c(C)cc(C(F)(C(F)(F)F)C(F)(F)F)cc3C)c2)c1 [Ia-37] | 83 | 100 | 100 | 80 | 100 | 100 | 100 | 100 |  |  |  |  |  |  | herbicidal efficacy (Viola tricolor (VIOTR)): 100% |
| CC(=S)NCc1cc(-c2cnn(-c3c(Cl)cc(C(F)(C(F)(F)F)C(F)(F)F)cc3Cl)c2)ccc1Cl [Ia-162, N-(2-chloro-5-{1-[2,6-dichloro-4-(1,1,1,2,3,3,3-heptafluoropropan-2-yl)phenyl]-1H-pyrazol-4-yl}benzyl)ethanethioamide] |  | 100 |  | 100 | 100 | 100 | 100 |  | 100 | 80 | 4.98 | 100 | 100 | 90 to 100 | chromatographic logP (reversed-phase C18 HPLC column, logP^a, HPLC-MS method a), reversed-phase column (C18)): 4.98; mortality at 20 mg/m2 [5]: 90 to 100%; mortality at 20 mg/m2 [6]: 90 to 100% |
| O=C(NCc1cc(-c2cnn(-c3c(Cl)cc(C(F)(C(F)(F)F)C(F)(F)F)cc3OC(F)(F)F)c2)ccc1Cl)C1CC1 [Ia-56] | 100 | 100 | 100 |  | 100 | 100 |  | 100 |  |  |  | 100 |  |  | efficacy (Rhipicephalus sanguineus; application rate 1 μg/cm^2 (=100 g/ha)): 100% |
| CC(=O)NCc1cc(-c2cnn(-c3c(Cl)cc(C(F)(C(F)(F)F)C(F)(F)F)cc3Cl)c2)ccc1Cl [Ia-05, N-(2-chloro-5-{1-[2,6-dichloro-4-(1,1,1,2,3,3,3-heptafluoropropan-2-yl)phenyl]-1H-pyrazol-4-yl}benzyl)acetamide] |  | 100 |  | 100 | 100 | 100 |  |  | 100 |  | 4.13 | 100 | 100 | 90 to 100 | chromatographic logP [12]: 4.13; mortality at 20 mg/m2 [5]: 90 to 100%; mortality at 100 mg/m2 [5]: 90 to 100%; mortality at 20 mg/m2 [6]: 90 to 100%; mortality at 100 mg/m2 [6]: 90 to 100%; mortality at 100 mg/m2 [7]: 90 to 100% |
| CC(=O)N(Cc1cc(-c2cnn(-c3c(Cl)cc(C(F)(C(F)(F)F)C(F)(F)F)cc3Cl)c2)ccc1Cl)C(C)=O [Ia-108, N-Acetyl-N-(2-chloro-5-{1-[2,6-dichloro-4-(1,1,1,2,3,3,3-heptafluoropropan-2-yl)phenyl]-1H-pyrazol-4-yl}benzyl)acetamide] |  | 100 |  | 80 | 100 | 100 | 90 |  | 100 |  | 5.14 | 100 | 100 | 90 to 100 | chromatographic logP [12]: 5.14; mortality at 100 mg/m2 [5]: 90 to 100%; mortality at 100 mg/m2 [7]: 90 to 100% |
| CCC(=O)NCc1cccc(-c2cnn(-c3c(C)cc(C(F)(C(F)(F)F)C(F)(F)F)cc3C)c2)c1 [Ia-28] | 100 | 100 | 100 | 80 | 100 | 100 | 100 | 100 |  | 80 |  |  |  |  | herbicidal efficacy (Viola tricolor (VIOTR)): 100% |
| CC(=O)NCc1cc(-c2cnn(-c3c(C)cc(C(F)(C(F)(F)F)C(F)(F)F)cc3C)c2)ccc1Cl [Ia-95] | 100 | 100 |  | 80 | 100 | 100 | 100 | 100 |  | 100 |  | 100 |  |  | efficacy (kill) (Myzus persicae [8]): 85% |
| CCC(=O)NCc1cc(-c2cnn(-c3c(C)cc(C(F)(C(F)(F)F)C(F)(F)F)cc3C)c2)ccc1F [Ia-01] | 100 | 100 |  | 100 | 100 | 100 | 100 | 100 |  | 100 |  | 100 |  |  | efficacy (rate of extermination) (Amblyomma hebraeum): 100%; efficacy (Myzus persicae [9]): 100% |
| CC(=O)NCc1cc(-c2cnn(-c3c(C)cc(C(F)(C(F)(F)F)C(F)(F)F)cc3C)c2)ccc1F [Ia-13] | 100 | 100 |  | 100 | 100 | 100 | 100 | 100 |  | 100 |  | 100 |  |  | efficacy (rate of extermination) (Amblyomma hebraeum): 100%; efficacy (Myzus persicae [9]): 100% |
